The results in this text go back to patent publication US6831075B2, “Heterocyclic substituted pyrazolones” (Cephalon, Inc., priority 1999, dated 2004).

T3 sequence (P04629 440-796 limits assumed): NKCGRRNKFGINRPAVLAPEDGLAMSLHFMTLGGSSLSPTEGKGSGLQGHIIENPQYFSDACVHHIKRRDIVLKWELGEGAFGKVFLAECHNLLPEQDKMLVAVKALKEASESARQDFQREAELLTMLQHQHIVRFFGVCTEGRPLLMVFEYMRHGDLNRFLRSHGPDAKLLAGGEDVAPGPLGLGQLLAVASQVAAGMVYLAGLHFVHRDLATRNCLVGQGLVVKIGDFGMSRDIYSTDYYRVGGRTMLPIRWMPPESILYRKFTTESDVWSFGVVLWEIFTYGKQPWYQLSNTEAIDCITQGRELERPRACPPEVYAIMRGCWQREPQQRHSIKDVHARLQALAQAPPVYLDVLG

The first assay concerns the target T1, recombinant human baculovirus-expressed VEGFR1 cytoplasmic domain (Homo sapiens, UniProt P17948).
T1 construct: recombinant human baculovirus-expressed VEGFR1 cytoplasmic domain; host or cells: baculovirus expression system
T1 sequence (P17948 781-1338 limits assumed): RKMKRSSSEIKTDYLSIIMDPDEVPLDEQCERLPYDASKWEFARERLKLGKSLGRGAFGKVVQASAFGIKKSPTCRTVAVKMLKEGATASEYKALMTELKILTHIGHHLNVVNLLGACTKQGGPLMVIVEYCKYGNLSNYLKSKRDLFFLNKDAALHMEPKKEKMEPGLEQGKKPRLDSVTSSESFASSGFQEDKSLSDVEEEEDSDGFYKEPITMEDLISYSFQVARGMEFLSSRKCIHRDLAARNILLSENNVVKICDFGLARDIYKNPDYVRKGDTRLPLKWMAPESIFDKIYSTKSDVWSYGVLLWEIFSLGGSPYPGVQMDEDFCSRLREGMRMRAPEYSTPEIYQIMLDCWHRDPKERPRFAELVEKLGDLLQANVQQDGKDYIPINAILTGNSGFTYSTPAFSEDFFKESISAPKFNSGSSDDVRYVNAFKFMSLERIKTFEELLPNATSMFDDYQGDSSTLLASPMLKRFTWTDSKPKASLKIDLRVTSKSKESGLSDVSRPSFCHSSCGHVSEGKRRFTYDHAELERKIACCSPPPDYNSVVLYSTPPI
The experiment in a line: VEGFR1 kinase inhibition assay (ELISA-based, time-resolved fluorescence). The format is biochemical. To be noted: 1 uM compound; 30 μM ATP. A digest of the protocol:
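Prephosphorylated baculovirus-expressed VEGFR1 cytoplasmic domain (300 ng/ml) phosphorylates plate-bound PLC-γ/GST with 30 μM ATP, 10 mM MnCl2, pH 7.4, 15 min at 37 °C. Compounds tested at 1 μM. Phosphotyrosine detected with europium anti-phosphotyrosine antibody by time-resolved fluorescence.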
In the case of `O=C1NN=C(c2cccs2)C1=Cc1c[nH]c2ccccc12` [Compound 62], the “VEGFR-1 kinase % inhibition @ 1 uM” value is 38%.
Consider `O=C1NN=C(c2ccco2)C1=Cc1c[nH]c2ccc(F)cc12` [Compound 48], for which the “VEGFR-1 kinase % inhibition @ 1 uM” value is listed as 54%.
Same read-out and setting: under `Cc1ccc2c(C=C3C(=O)NN=C3c3ccco3)c[nH]c2c1` [Compound 46] stands 41%.
Same read-out and setting: under `O=C1NN=C(c2ccoc2)C1=Cc1ncc[nH]1` [Compound 15] stands 12%.
The same measure, in the same setting: under `Cc1cc(C)c(C=C2C(=O)NN=C2c2sc(C)nc2C)[nH]1` [Compound 14] stands 8%.
Regarding `O=C1NN=C(c2cccs2)C1=Cc1cn(Cc2ccccc2)c2ccccc12` [Compound 75], the “VEGFR-1 kinase % inhibition @ 1 uM” value is given as 5%.
On to `Cc1oc(-c2ccc(Cl)cc2)cc1C1=NNC(=O)C1=Cc1c[nH]c2ccccc12` [Compound 42], for which the “VEGFR-1 kinase % inhibition @ 1 uM” value was determined as 13%.
As for `O=C1NN=C(c2ccoc2)C1=Cc1c[nH]c2ccccc12` [Compound 9], the “VEGFR-1 kinase % inhibition @ 1 uM” value came out at 51%.
The same measure, in the same setting: under `Cc1cc(C)c(C=C2C(=O)NN=C2c2ccccn2)[nH]1` [Compound 30] stands 41%; under `O=C1NN=C(c2ccoc2)C1=Cc1c[nH]c2ccc(F)cc12` [Compound 19], 30%.

For a further assay, the target named is T2, recombinant human baculoviral VEGFR2 cyctoplasmic domain (Homo sapiens, UniProt P35968).
T2 construct: recombinant human baculoviral VEGFR2 cyctoplasmic domain; host or cells: baculovirus expression system
T2 sequence (P35968 786-1356 limits assumed): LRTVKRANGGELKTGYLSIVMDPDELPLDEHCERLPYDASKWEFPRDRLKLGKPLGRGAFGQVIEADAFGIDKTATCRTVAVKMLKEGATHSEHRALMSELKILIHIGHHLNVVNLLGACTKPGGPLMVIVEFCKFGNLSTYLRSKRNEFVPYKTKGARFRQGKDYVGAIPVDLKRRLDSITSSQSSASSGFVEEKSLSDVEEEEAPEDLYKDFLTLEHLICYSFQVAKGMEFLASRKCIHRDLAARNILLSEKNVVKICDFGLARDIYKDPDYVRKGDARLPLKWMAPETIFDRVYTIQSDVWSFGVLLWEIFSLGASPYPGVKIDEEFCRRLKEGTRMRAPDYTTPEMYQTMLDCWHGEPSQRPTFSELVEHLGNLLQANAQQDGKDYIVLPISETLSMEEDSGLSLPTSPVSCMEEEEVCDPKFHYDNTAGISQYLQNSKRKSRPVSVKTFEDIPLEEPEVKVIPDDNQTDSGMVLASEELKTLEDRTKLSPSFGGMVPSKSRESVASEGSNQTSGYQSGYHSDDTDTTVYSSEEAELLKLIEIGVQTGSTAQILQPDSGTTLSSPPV
The experiment in a line: VEGFR2 kinase inhibition assay (ELISA-based, time-resolved fluorescence). Type of assay: biochemical. The settings on record: 1 uM compound; 30 μM ATP. For orientation: An ELISA detects its analyte on a solid surface through an enzyme-linked reagent.
Turning to `O=C1NN=C(c2cccs2)C1=Cc1c[nH]c2ccccc12` [Compound 62], the “VEGFR-2 kinase % inhibition @ 1 uM” value worked out at 52%.
On the same count and under the same terms, under `O=C1NN=C(c2ccco2)C1=Cc1c[nH]c2ccc(F)cc12` [Compound 48] stands 58%; under `Cc1ccc2c(C=C3C(=O)NN=C3c3ccco3)c[nH]c2c1` [Compound 46], 71%; under `O=C1NN=C(c2ccoc2)C1=Cc1ncc[nH]1` [Compound 15], 11%.
Consider `Cc1cc(C)c(C=C2C(=O)NN=C2c2sc(C)nc2C)[nH]1` [Compound 14], for which the “VEGFR-2 kinase % inhibition @ 1 uM” value worked out at 13%.
On the same count and under the same terms, the same measure for `O=C1NN=C(c2cccs2)C1=Cc1cn(Cc2ccccc2)c2ccccc12` [Compound 75]: 32%.
Same read-out and setting: the same measure for `Cc1oc(-c2ccc(Cl)cc2)cc1C1=NNC(=O)C1=Cc1c[nH]c2ccccc12` [Compound 42]: 28%; for `O=C1NN=C(c2ccoc2)C1=Cc1c[nH]c2ccccc12` [Compound 9]: 49%; for `Cc1cc(C)c(C=C2C(=O)NN=C2c2ccccn2)[nH]1` [Compound 30]: 68%.
Same read-out and setting: under `O=C1NN=C(c2ccoc2)C1=Cc1c[nH]c2ccc(F)cc12` [Compound 19] stands 44%.

The next assay concerns the target T3, baculovirus-expressed human trkA cytoplasmic domain (Homo sapiens, UniProt P04629).
T3 construct: baculovirus-expressed human trkA cytoplasmic domain; host or cells: baculovirus expression system
The experiment in a line: trkA tyrosine kinase inhibition assay (ELISA-based). The settings on record: 1 uM compound; 40 μM ATP. Type of assay: biochemical. The gist of the method: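 ELISA with PLC-γ1/GST fusion substrate coated on plate; kinase reaction in 50 mM Hepes pH 7.4, 40 μM ATP, 10 mM MnCl2, 0.1% BSA, 2% DMSO, 15 min at 37°C, started by enzyme. Phosphotyrosine detected by anti-phosphotyrosine and alkaline phosphatase secondary antibody with amplified read-out; inhibition fitted by variable-slope sigmoidal dose-response.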
For the molecule `O=C1NN=C(c2cccs2)C1=Cc1c[nH]c2ccccc12` [Compound 62], the “trkA % inhibition @ 1 uM” value came to 45%.
Same read-out and setting: under `O=C1NN=C(c2ccco2)C1=Cc1c[nH]c2ccc(F)cc12` [Compound 48] stands 47%; under `Cc1ccc2c(C=C3C(=O)NN=C3c3ccco3)c[nH]c2c1` [Compound 46], 29%; under `O=C1NN=C(c2ccoc2)C1=Cc1ncc[nH]1` [Compound 15], 15%.
The same measure, in the same setting: the same measure for `Cc1cc(C)c(C=C2C(=O)NN=C2c2sc(C)nc2C)[nH]1` [Compound 14]: 35%; for `O=C1NN=C(c2cccs2)C1=Cc1cn(Cc2ccccc2)c2ccccc12` [Compound 75]: 23%.
With `Cc1oc(-c2ccc(Cl)cc2)cc1C1=NNC(=O)C1=Cc1c[nH]c2ccccc12` [Compound 42], the “trkA % inhibition @ 1 uM” value stood at 29%.
Still for that read-out and setting: the same measure for `O=C1NN=C(c2ccoc2)C1=Cc1c[nH]c2ccccc12` [Compound 9]: 41%; for `Cc1cc(C)c(C=C2C(=O)NN=C2c2ccccn2)[nH]1` [Compound 30]: 22%; for `O=C1NN=C(c2ccoc2)C1=Cc1c[nH]c2ccc(F)cc12` [Compound 19]: 45%.

In the next assay the target is T4, baculoviral GST-MLK3KD (Homo sapiens, UniProt Q16584).
T4 construct: 2 μg/ml of baculoviral GST-MLK3KD; GST (N); host or cells: baculovirus expression system
T4 sequence (Q16584 117-379 limits assumed): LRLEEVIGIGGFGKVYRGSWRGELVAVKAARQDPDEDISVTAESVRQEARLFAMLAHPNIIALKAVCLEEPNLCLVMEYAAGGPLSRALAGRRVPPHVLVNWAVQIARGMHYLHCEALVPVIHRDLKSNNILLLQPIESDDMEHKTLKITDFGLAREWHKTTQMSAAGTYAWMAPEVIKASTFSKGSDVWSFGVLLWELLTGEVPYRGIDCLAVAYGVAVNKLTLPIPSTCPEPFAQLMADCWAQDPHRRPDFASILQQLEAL
The experiment in a line: Mixed Lineage Kinase-3 inhibition assay (Millipore Multiscreen plate, 32P). Type of assay: biochemical. The settings on record: 1 uM compound; 100 μM ATP. A digest of the protocol:
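Radiometric filter-plate assay: 2 μg/ml baculoviral GST-MLK3KD with 500 μg/ml myelin basic protein, 100 μM ATP plus [γ-32P]ATP, in 20 mM Hepes pH 7, 10 mM MgCl2, 1 mM DTT, 2% DMSO. Incubated 15 min at 37 °C, stopped and precipitated with cold TCA, washed, then scintillation counted.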
Take `O=C1NN=C(c2cccs2)C1=Cc1c[nH]c2ccccc12` [Compound 62]: the “MLK-3 Kinase % inhibition @ 1 uM” value amounted to 45%.
For `O=C1NN=C(c2ccco2)C1=Cc1c[nH]c2ccc(F)cc12` [Compound 48], the “MLK-3 Kinase % inhibition @ 1 uM” value came out at 31%.
On the same count and under the same terms, under `Cc1ccc2c(C=C3C(=O)NN=C3c3ccco3)c[nH]c2c1` [Compound 46] stands 36%.
The same measure, in the same setting: under `O=C1NN=C(c2ccoc2)C1=Cc1ncc[nH]1` [Compound 15] stands −17%.
As to `Cc1cc(C)c(C=C2C(=O)NN=C2c2sc(C)nc2C)[nH]1` [Compound 14], the “MLK-3 Kinase % inhibition @ 1 uM” value was 14%.
The same measure, in the same setting: under `O=C1NN=C(c2cccs2)C1=Cc1cn(Cc2ccccc2)c2ccccc12` [Compound 75] stands 24%.
On the same count and under the same terms, under `Cc1oc(-c2ccc(Cl)cc2)cc1C1=NNC(=O)C1=Cc1c[nH]c2ccccc12` [Compound 42] stands 21%; under `O=C1NN=C(c2ccoc2)C1=Cc1c[nH]c2ccccc12` [Compound 9], 27%.
The same measure, in the same setting: under `Cc1cc(C)c(C=C2C(=O)NN=C2c2ccccn2)[nH]1` [Compound 30] stands 46%; under `O=C1NN=C(c2ccoc2)C1=Cc1c[nH]c2ccc(F)cc12` [Compound 19], 11%.
